Drawing on ChEMBL document CHEMBL1146674, “Effective irreversible alkylating reagents based on the structure of clavulones” (Bioorg Med Chem Lett, 2004), this text covers IC50 for 6 compounds.

The structures appear in SMILES notation. pIC50: −log10 of the molar value.

One experiment has as its system HeLa. As to the kind of experiment: Cytotoxicity in HeLa S3 cells (human uterocervical carcinoma) was determined. The experiment is classed as functional, cell-based. As to conditions: Homo sapiens, HeLa; read-out: IC50.
As for `CC(=O)OC1(CC#Cc2ccccc2)C=CC(=O)C1=Cc1ccccc1` (stereo unspecified), the pIC50 is 7.62.

For `O=C1CC(SCCO)C(O)(CC#Cc2ccccc2)/C1=C/c1ccccc1` (stereo unspecified), the pIC50 was 7.68.

For the compound `O=C1C=CC(O)(CC#Cc2ccccc2)/C1=C/c1ccccc1` (stereo unspecified), the negative logarithm of the IC50 (pIC50) is 7.82.

Regarding `O=C1C=CC(CC#Cc2ccccc2)(OC2CCCCO2)/C1=C/c1ccccc1` (stereo unspecified), the pIC50 is 5.96.

The same experiment, now with this note: hela.
Take `O=C1CC(SCCO)/C(=C\C#Cc2ccccc2)C1C(SCCO)c1ccccc1` (stereo unspecified): the half-maximal inhibitory concentration (IC50) is more than 1000 µM.

Regarding `O=C1CC(SCCO)/C(=C/C#Cc2ccccc2)C1C(SCCO)c1ccccc1` (stereo unspecified), the half-inhibitory concentration (IC50) is more than 1000 µM.

As usually defined, the pIC50 is the IC50 on a negative log10 scale, so that one unit is a factor of ten. By IC50 is commonly meant the point on the concentration scale where inhibition reaches its midpoint.
